The test system of test [1] is microtubule-associated protein2 (MAP2). Briefly: Binding (affinity) by displacement of PREG-3H. The conditions noted are these: index of binding.
Test [2] has as its target purified tubulin and MAP2 (Homo sapiens, UniProt P11137). The test is described as follows: Microtubule polymerization activity (optical density at 345 nm). It is filed as biochemical. To be noted: increase in optical density at 345 nm, 37 °C, in the presence of GTP. On the procedure: Activity is measured by the increase in optical density at 345 nm of a mixture of purified tubulin and MAP2, incubated at 37 °C in the presence of GTP.

The target in test [3] is T1, human progesterone receptor(PR) (Homo sapiens, UniProt P06401).
T1 construct: expressed in transfected cells; host or cells: HEK293T
T1 sequence (P06401 1-933): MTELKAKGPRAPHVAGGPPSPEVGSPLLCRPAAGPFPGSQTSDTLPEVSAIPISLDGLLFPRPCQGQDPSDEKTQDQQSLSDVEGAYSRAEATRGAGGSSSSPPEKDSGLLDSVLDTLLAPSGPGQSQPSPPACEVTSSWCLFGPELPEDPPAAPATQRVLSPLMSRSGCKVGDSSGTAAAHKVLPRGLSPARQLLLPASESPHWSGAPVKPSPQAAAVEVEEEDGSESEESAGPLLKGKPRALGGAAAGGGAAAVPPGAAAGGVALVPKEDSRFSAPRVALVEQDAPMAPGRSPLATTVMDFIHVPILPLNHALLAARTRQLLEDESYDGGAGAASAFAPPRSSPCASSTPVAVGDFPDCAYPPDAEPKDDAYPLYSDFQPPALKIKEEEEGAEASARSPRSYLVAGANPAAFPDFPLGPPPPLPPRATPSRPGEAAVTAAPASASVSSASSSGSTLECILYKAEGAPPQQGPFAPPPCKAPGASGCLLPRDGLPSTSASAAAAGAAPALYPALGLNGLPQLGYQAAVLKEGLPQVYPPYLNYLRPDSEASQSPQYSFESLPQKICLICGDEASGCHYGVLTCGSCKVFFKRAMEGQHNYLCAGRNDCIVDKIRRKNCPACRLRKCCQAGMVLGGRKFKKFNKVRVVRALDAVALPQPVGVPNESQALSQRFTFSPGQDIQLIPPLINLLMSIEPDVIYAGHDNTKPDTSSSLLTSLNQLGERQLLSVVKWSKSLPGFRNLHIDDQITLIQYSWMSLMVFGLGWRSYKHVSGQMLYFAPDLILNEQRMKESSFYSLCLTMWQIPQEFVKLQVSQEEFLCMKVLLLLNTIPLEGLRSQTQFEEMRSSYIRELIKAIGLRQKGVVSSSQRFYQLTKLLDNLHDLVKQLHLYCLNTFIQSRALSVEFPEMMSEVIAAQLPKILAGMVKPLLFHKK
The test is described as follows: Test of progesterone receptor agonist activity (MMTV-luciferase transactivation in transfected HEK293T cells). To be noted: 24 hours, increasing amounts, Figure 1. The format is cell-based. The method, then: The main experimental setting used is the following: HEK293T cells were transiently transfected, using calcium phosphate precipitation technology, with expression vectors pSG5hPR (which permits expression of human progesterone receptor(PR)), pFC31-luc (contains the luciferase gene under the control of the MMTV promoter, which is in turn activated by binding of a progestin to progesterone receptor) and pcbetagal (which permits expression of betagalactosidase), and cultured during 24 hours with increasing amounts of various compositions: • 1. […] Test of progesterone receptor […] activity: transfected cells were cultured with progesterone (1 nM) and increasing amounts of RU486 (a well-known progesterone receptor antagonist) or 3-methoxy-pregnenolone. With this setting, a compound with progesterone receptor antagonist activity competes with progesterone for the occupation of progesterone receptor and results in a progressive loss of transactivation activity when the amount of this compound is increased compared to progesterone.

Test [4] deals with PC12 cells. Briefly: Stimulation of neuritic sprouting. The format is cell-based. To be noted: PC12 cells differentiated with NGF (10 ng/ml), steroid 30 µM, 3 days; relative to PREG. On the procedure: Stimulation of neuritic sprouting is conducted on PC12 cells differentiated in the presence of NGF (10 ng/ml) and the steroid being tested (30 µM) for 3 days. For each condition, the average length of the longest 200 neurites […] is measured simultaneously for 3 cultures.

In test [5] the test system is Wistar Kyoto (WKY) rats. Briefly: Locomotor activity in the open-field arena, WKY rats. The format is in vivo, rat. To be noted: acute, fluoxetine 10 mg/kg i.p., ketamine 30 mg/kg i.p., 3 min, Fig. 5A. The method, then: (§1) After a 6-day period of acclimatization, all experimental groups received daily successive subcutaneous (250 µl per rat) and intraperitoneal (1 ml/kg) injections. WI rats received injection of vehicle (sesame oil + saline) while WKY rats were randomly assigned to […], as follow: KWY rats receiving only vehicle (sesame oil + saline) and WKY rats treated with MAP4343 (10 mg/kg, s.c.; rats received in parallel i.p. injections of saline), fluoxetine (10 mg/kg i.p., rats received in parallel s.c. injections of sesame oil) or ketamine (30 mg/kg, i.p.; rats received in parallel s.c. injections of sesame oil) (see Figure 3).
(§2) After, a 6-day period of acclimatization, the acute phase of treatment started for 4 days during behavioral tests were performed (Figure 3). All animals were injected 1h30 before the starting of behavioral test.
(§3) The animals were individually placed in the open field arena (OFA) (70 x 100 x 70 cm), with a central square (35 x 50 cm), located in a 50 lux illuminated room and videotaped during 3 min using a computerized system (VideoTrack V2.5, ViewPoint, Lyon, France).
(§4) OFA allows firstly the evaluation of total locomotor activity (LMA) thereby measuring the total distance travelled in the arena (in cm). Secondly, measurements of the activity in the center of the arena like (i) the number of entries in the center of arena and (ii) the total time spent in the center of arena (in sec) provide cues of anxiety-like behavior (Prut and Belzung, 2003). All these behavioral parameters were instantaneously measured automatically with the VideoTrack V2.5 software from the videos.

The subject of test [6] is Wistar Kyoto (WKY) rats. Briefly: Anxious-like behavior: activity in the central square of the open-field arena, WKY rats. The format is in vivo, rat. The conditions noted are these: acute, MAP4343 10 mg/kg s.c., fluoxetine 10 mg/kg i.p., ketamine 30 mg/kg i.p. The method, then:
as §1, §2, §3, §4

For test [7], the system named is Wistar Kyoto (WKY) rats. The test is described as follows: Elevated-plus maze (EPM), WKY rats. The format is in vivo, rat. The conditions noted are these: acute, MAP4343 10 mg/kg s.c., fluoxetine 10 mg/kg, ketamine 30 mg/kg i.p., Fig. 5D. On the procedure:
as §1, §2
We used the elevated-plus maze (EPM) as an assay of anxiety-related behavior in rodents (Walf and Frye, 2007). Rats were initially placed in the center of the plus-maze, consisting of two open arms (50 x 10 cm) and two closed arms (50 x 10 cm enclosed by 40 cm walls), in a 50 lux illuminated room and videotaped during 5 min using a computerized system (VideoTrack V2.5, ViewPoint, Lyon, France). The time spent in the open versus closed arms was blindly measured by two independent experimenters from the recorded video, and the open arm-index was calculated as follow: time in the open arms (sec) / [time in open arms (sec) + time in closed arms (sec)].

purified tubulin and MAP2, sequence (P11137 whole entry): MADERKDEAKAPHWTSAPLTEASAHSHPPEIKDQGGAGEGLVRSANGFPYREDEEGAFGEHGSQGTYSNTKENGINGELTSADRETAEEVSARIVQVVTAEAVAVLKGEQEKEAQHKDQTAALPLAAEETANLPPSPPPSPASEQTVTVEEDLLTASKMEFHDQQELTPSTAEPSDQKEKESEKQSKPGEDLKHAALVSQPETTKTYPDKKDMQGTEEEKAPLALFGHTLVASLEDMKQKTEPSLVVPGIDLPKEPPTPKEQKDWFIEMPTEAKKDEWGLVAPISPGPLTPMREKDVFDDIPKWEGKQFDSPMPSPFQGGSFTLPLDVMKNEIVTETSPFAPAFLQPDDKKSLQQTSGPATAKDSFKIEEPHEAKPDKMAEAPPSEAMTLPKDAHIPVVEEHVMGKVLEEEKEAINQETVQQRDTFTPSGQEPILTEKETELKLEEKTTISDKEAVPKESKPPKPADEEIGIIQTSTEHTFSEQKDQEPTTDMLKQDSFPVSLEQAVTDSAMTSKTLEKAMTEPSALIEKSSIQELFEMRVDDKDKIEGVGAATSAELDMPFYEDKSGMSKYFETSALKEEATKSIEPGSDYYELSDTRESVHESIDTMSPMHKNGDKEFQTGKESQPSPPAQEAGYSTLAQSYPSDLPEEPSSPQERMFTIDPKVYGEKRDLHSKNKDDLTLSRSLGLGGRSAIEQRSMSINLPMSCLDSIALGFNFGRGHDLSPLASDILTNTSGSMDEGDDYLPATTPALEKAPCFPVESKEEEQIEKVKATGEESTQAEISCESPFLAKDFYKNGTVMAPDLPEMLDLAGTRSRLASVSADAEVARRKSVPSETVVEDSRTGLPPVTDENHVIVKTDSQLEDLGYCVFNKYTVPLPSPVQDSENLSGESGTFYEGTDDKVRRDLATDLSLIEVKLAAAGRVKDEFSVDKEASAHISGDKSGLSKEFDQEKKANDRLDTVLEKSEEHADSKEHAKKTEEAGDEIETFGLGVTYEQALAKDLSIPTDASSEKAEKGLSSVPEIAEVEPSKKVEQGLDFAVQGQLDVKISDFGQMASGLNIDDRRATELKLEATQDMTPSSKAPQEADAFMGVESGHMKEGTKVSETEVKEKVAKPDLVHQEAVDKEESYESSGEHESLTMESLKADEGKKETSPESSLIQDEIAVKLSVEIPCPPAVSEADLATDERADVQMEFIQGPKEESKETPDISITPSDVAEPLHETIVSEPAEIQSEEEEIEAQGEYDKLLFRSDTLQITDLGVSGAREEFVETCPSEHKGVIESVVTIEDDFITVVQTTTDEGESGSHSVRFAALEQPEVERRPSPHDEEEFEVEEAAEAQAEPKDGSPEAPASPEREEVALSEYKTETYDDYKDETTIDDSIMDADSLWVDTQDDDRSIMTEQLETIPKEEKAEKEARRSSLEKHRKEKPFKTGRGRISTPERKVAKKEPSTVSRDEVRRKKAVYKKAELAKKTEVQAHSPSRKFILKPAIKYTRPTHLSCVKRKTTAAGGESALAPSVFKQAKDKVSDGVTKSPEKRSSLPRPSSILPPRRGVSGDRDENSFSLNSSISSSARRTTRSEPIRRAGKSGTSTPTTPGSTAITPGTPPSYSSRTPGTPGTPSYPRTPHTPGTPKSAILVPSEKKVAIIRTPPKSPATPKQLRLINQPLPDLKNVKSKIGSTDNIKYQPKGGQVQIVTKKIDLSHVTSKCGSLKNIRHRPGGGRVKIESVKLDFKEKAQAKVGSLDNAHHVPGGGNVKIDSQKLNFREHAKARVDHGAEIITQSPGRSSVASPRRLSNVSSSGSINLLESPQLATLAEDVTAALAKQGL

Consider `CC(=O)[C@H]1[C@H](C)C[C@H]2[C@@H]3CC[C@H]4C[C@@H](O)CC[C@]4(C)[C@H]3CC[C@@]21C` [3β-hydroxy-5a-pregnane-20-one-16a-methyl], for which the Affinity in test [1] was 57% of PREG. In addition, in test [2], the Activity is listed as 53% of PREG.

For `CC(=O)[C@H]1[C@@H](C)C[C@H]2[C@@H]3CC=C4C[C@@H](O)CC[C@]4(C)[C@H]3CC[C@@]21C` [PREG-168-methyl], in test [1], the Affinity is 63% of PREG. Also, the Activity in test [2] is on record as 67% of PREG.

With `CC(=O)[C@H]1CC[C@H]2[C@@H]3CCC4=CC(=O)CC[C@]4(C)[C@H]3CC[C@]12C` [progesterone, reference compound], the “progesterone receptor agonist activity (transactivation activity leading to the expression of luciferase)” value in test [3] is “permits a transactivation activity”.

In the case of `CC(=O)[C@@]12C[C@@H]1C[C@H]1[C@@H]3CC=C4C[C@@H](O)CC[C@]4(C)[C@H]3CC[C@@]12C` [PREG-16a,17a-methylene], the Affinity in test [1] was 62% of PREG. The Activity in test [2] was 49% of PREG. Further, in test [4], the Neuritic sprouting entry is “+ (stimulation is lower than)”.

As to `CNC1(c2ccccc2Cl)CCCCC1=O` (stereo not shown) [ketamine], the “locomotor activity (total distance travelled in the open-field arena), change as compared to WKY receiving vehicle” value in test [5] (MAP4343 10 mg/kg s.c.) is “no significant change”. In addition, in test [5], the “locomotor activity (total distance travelled in the open-field arena), change as compared to MAP4343-treated WKY” value was “no significant change”. In test [6] (Fig. 5B), the “number of entries in the central square of OFA, change as compared to WKY receiving only vehicle” value was “failed to significantly modify”. Besides, in test [6] (Fig. 5C), the “time spent in the center of open-field, change as compared to WKY receiving vehicle” value is listed as “did not induce any significant change”. Moreover, in test [7], the “open-arm (OA) index, change when compared to WKY receiving vehicle alone” value is recorded as -29%.

On to `CO[C@H]1CC[C@@]2(C)C(=CC[C@H]3C4=CC[C@H](C(C)=O)[C@@]4(C)CC[C@@H]32)C1` [3β-methoxy-pregna-5,14-diene-20-one], for which the Affinity in test [1] is given as 102% of PREG. Further, in test [2], the Activity is on record as 50% of PREG. Moreover, the Neuritic sprouting result in test [4] is recorded as “+ (stimulation is lower than)”.

For `CO[C@H]1CC[C@@]2(C)[C@@H](CC[C@@H]3[C@@H]2CC[C@]2(C)[C@@H](C(C)=O)CC[C@@H]32)C1` (stereo in doubt) [3β-methoxy-5a-pregnane-20-one], in test [1], the Affinity is reported as 87% of PREG. Further, the Activity in test [2] is reported as 10% of PREG. Besides, the Neuritic sprouting result in test [4] is reported as “+++”.

In the case of `CO[C@H]1CC[C@@]2(C)C(=CCC3C2CC[C@@]2(C)C3CC[C@@]2(C(C)=O)C(Cl)Cl)C1` (stereo partly drawn) [3β-methoxy-pregna-5-ene-20-one-17a-dichloromethyl], the Affinity in test [1] is 53% of PREG. The Activity in test [2] is given as 113% of PREG. Besides, the Neuritic sprouting result in test [4] is recorded as “+++”.

For the molecule `CC(=O)[C@@]12O[C@@H]1C[C@H]1[C@@H]3CC=C4C[C@@H](O)CC[C@]4(C)[C@H]3CC[C@@]12C` [PREG-16a,17a-epoxy], in test [1], the Affinity is 41% of PREG. Also, the Activity in test [2] is 54% of PREG. For the same molecule, the Neuritic sprouting result in test [4] is reported as “+ (stimulation is lower than)”.

Consider `CC(=O)[C@H]1[C@H](C)C[C@H]2[C@@H]3CC=C4C[C@@H](O)CC[C@]4(C)[C@H]3CC[C@@]21C` [PREG-16a-methyl], for which the Affinity in test [1] is reported as 80% of PREG. In addition, the Activity in test [2] was 70% of PREG. Moreover, the Neuritic sprouting entry in test [4] is “++ (equal to)”.

For the molecule `CO[C@H]1CC[C@@]2(C)[C@@H](CC[C@@H]3[C@@H]2CC[C@]2(C)[C@@H]([C@@H](C)O)CC[C@@H]32)C1` [3β-methoxy-5a-pregnane-20β-ol], in test [1], the Affinity is recorded as 65% of PREG. In addition, in test [2], the Activity was 65% of PREG. Besides, the Neuritic sprouting entry in test [4] was “++ (equal to)”.

Turning to `CC(=O)O[C@H](C)[C@H]1CC[C@H]2[C@@H]3CC=C4C[C@@H](O)CC[C@]4(C)[C@H]3CC[C@]12C` [Pregna-5-ene-3β,20β-diol-20-acetate], the Affinity in test [1] was 60% of PREG. Also, the Activity in test [2] is reported as 108% of PREG. The Neuritic sprouting result in test [4] is “++ (equal to)”.

As for `CC(=O)[C@H]1CC[C@H]2[C@@H]3CC=C4C[C@@H](O)CC[C@]4(C)[C@H]3CC[C@]12C` [Pregnenolone (PREG), 3β-hydroxypregn-5α-en-20α-one, reference compound], the Affinity in test [1] is given as 100% of PREG. Further, the Activity in test [2] is 100% of PREG. In test [4], the Neuritic sprouting result was “++ (equal to)”.
